Experimental data from patent EP2544684B1, “4,4-DISUBSTITUTED PIPERIDINE DERIVATIVES USEFUL AS INHIBITORS OF DIPEPTIDYL PEPTIDASE-1 (DPP-1)” (Janssen Pharmaceutica NV, priority 2010, dated 2011).
Counter-ions that a name gives are not always drawn.

Each molecule was assayed against T1, DPP-1 (Cathepsin C) (Homo sapiens, UniProt P53634) (assay: DPP-1 Inhibition Assay (in vitro), fluorogenic substrate GR-AMC). Settings: IC50, recombinant human DPP-1 0.15 nM, 10 uM GR-AMC, pH 7.0, room temperature; average value where tested multiple times.
T1 construct: made in house
T1 sequence (P53634 25-463): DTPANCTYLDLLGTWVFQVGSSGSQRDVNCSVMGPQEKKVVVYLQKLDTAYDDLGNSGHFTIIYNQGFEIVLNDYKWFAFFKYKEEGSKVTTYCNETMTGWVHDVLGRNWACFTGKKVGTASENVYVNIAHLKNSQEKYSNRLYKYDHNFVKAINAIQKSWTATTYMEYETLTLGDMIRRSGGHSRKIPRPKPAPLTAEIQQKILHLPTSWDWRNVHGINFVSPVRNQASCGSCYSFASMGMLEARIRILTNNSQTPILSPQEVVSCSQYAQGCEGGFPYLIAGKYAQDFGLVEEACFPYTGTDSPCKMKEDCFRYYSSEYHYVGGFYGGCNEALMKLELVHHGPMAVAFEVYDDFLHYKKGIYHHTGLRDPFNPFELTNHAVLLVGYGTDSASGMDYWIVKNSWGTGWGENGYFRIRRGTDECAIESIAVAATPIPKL
Type: biochemical
Description: Test compounds were assessed for DPP-1 (Cathepsin C) inhibitory activity using a fluorogenic substrate, GR-AMC (Glycine-Arginine-amino-4-methylcoumarin, Bachem, I-1215). The amount of amino-methylcoumarin released is proportional to the DPP-1 activity, and the reaction is monitored kinetically with a Molecular Devices plate reader using black 96-well plates.
All compounds were tested under room temperature conditions. The assay buffer consisted of 50 mM HEPES, pH 7.0, 100 mM NaCl, 2 mM glutathione (GSH), and 0.002% TWEEN 20. GSH and TWEEN 20 were added to the buffer fresh daily. Just prior to use, an in-house preparation of recombinant human DPP-1 (240 µM stock, MW 49.6 kD) was diluted 600-fold in assay buffer containing fresh 2 mM dithiothreitol (DTT) to activate the enzyme, then diluted into assay buffer (without DTT) 133-fold for a DPP-1 working solution of 3 nM. Test compounds were diluted in DMSO for 20x their final assay concentrations.
Additions to a 96-well black Costar 3915 plates were as follows: 90 µL of 11 µM GR-AMC, 5 µL test compound (followed by mixing), and 5 µL 3 nM DPP-1 to start the reaction. Fluorescent reactions were monitored kinetically at 360 nm excitation, 440 nm emission on a Molecular Devices Spectramax XPS reader. The Softmax Pro software of the reader determined the initial velocity of the selected data (the first 3-5 minutes of the reaction), and the best linear regression fit of the initial kinetic data. Final assay conditions were 0.15 nM DPP-1, 10 uM GR-AMC, 50 mM HEPES, pH 7.0, 100 mM NaCl, 2 mM GSH, 0.002% TWEEN 20, 1 uM DTT, 5.0 % DMSO. Initial velocity rates were plotted vs. test compound concentration by use of a four-parameter logistics equation (nonlinear regression, sigmoidal dose-response (variable slope), with fixed Hill (1.0) using GraphPad Prism® software for determination of DPP-1 IC50. Within-run assay coefficient of variation (CV) was generally <10%; between-run CV <20%.
Representative compounds of the present invention were tested according to the procedure as described above, with results as listed in Table 5, below. Table 5: DPP-1 Inhibition

In order of rising IC50:
1. CSC[C@H](N)C(=O)N1CCC(Cc2ccc(-c3ccccc3)cc2)(C(=O)NC2CCCCC2)CC1 [Compound 38]  750 nM
2. N[C@@H](Cc1cccs1)C(=O)N1CCC(Cc2ccc(-c3ccccc3)cc2)(C(=O)N2CCC3CCCCC3C2)CC1 (stereo partly shown) [Compound 7]  1300 nM
3. N#CC1(c2cc(C(F)(F)F)cc(C(F)(F)F)c2)CCN(C(=O)C(N)Cc2cccs2)CC1 (stereo not shown) [Compound 118]  3400 nM
4. CC[C@H](N)C(=O)N1CCC(Cc2ccc(C(F)(F)F)cc2)(C(=O)OCC2CCCCC2)CC1 [Compound 18]  5400 nM
5. N[C@@H](Cc1c[nH]cn1)C(=O)N1CCC(Cc2cccc(-c3ccccc3)c2)(C(=O)OCC2CCCCC2)CC1 [Compound 31]  5800 nM
6. CC[C@H](N)C(=O)N1CCC(Cc2cccc(-c3ccccc3)c2)(C(=O)OCC2CCCCC2)CC1 [Compound 29]  9500 nM

Same assay, conditions: recombinant human DPP-1 0.15 nM, 10 uM GR-AMC, pH 7.0, room temperature; average value where tested multiple times; read-out: IC50

First: N[C@@H](Cc1cccs1)C(=O)N1CCC(Cc2ccc(-c3ccccc3)cc2)(C(=O)NCC2CCOCC2)CC1 [Compound 6, (S)-1-(2-amino-3-(thiophen-2-yl)propanoyl)-4-(biphenyl-4-ylmethyl)-N-((tetrahydro-2H-pyran-4-yl)methyl)piperidine-4-carboxamide hydrochloride]
Second: NC(C(=O)N1CCC(Cc2ccc(-c3ccccc3)cc2)(C(=O)NCC2CCCCC2)CC1)C(O)c1cccs1 (stereo not shown) [Compound 123]
The IC50 of the first is 11-fold lower: 74 nM for the first, 820 nM for the second.

First: N#Cc1ccc(CC2(C(=O)OCC3CCCCC3)CCN(C(=O)[C@@H](N)Cc3cccs3)CC2)cc1 [Compound 15, (S)-cyclohexylmethyl 1-(2-amino-3-(thiophen-2-yl)propanoyl)-4-(4-cyanobenzyl)piperidine-4-carboxylate hydrochloride]
Second: NC(=O)c1ccc(CC2(C(=O)NCC3CCCCC3)CCN(C(=O)[C@@H](N)Cc3cccs3)CC2)cc1 [Compound 116, (S)-1-(2-amino-3-(thiophen-2-yl)propanoyl)-4-(4-carbamoylbenzyl)-N-(cyclohexylmethyl)piperidine-4-carboxamide hydrochloride]
The IC50 of the first is 1.7-fold higher: 83 nM for the first, 50 nM for the second.

`C#CC[C@H](N)C(=O)N1CCC(Cc2ccc(-c3ccccc3)cc2)(C(=O)NC2CCCCC2)CC1` [Compound 35] and `CC[S+]([O-])CCC(N)C(=O)N1CCC(Cc2ccc(-c3ccccc3)cc2)(C(=O)NCC2CCCCC2)CC1` (stereo not shown) [Compound 107] cannot be ordered by IC50: > 20000 nM for the first, > 20000 nM for the second.

`COc1cccc(-c2ccc(CC3(C(=O)NC4CCCCC4)CCN(C(=O)[C@@H](N)Cc4cccs4)CC3)cc2)c1` [Compound 47, (S)-1-(2-amino-3-(thiophen-2-yl)propanoyl)-N-cyclohexyl-4-((3'-methoxybiphenyl-4-yl)methyl)piperidine-4-carboxamide hydrochloride] and `CC(=O)Nc1ccc(CC2(C(=O)NC3CCCCC3)CCN(C(=O)[C@@H](N)Cc3cccs3)CC2)cc1` [Compound 90, (S)-4-(4-acetamidobenzyl)-1-(2-amino-3-(thiophen-2-yl)propanoyl)-N-cyclohexylpiperidine-4-carboxamide hydrochloride] are within 1.5-fold of each other in IC50: 34 nM for the first, 49 nM for the second.

First: CN(C)C(=O)c1ccc(CC2(C(=O)NC3CCCCC3)CCN(C(=O)[C@@H](N)Cc3cccs3)CC2)cc1 [Compound 59, (S)-1-(2-amino-3-(thiophen-2-yl)propanoyl)-N-cyclohexyl-4-(4-(dimethylcarbamoyl)benzyl)piperidine-4-carboxamide hydrochloride]
Second: N[C@@H](Cc1cccs1)C(=O)N1CCC(Cc2ccc(-c3nnn[nH]3)cc2)(C(=O)NC2CCCCC2)CC1 [Compound 126, (S)-4-(4-(1H-tetrazol-5-yl)benzyl)-1-(2-amino-3-(thiophen-2-yl)propanoyl)-N-cyclohexylpiperidine-4-carboxamide hydrochloride]
The IC50 of the first is 2-fold lower: 86 nM for the first, 170 nM for the second.

Going from `CS(=O)(=O)CC[C@H](N)C(=O)N1CCC(Cc2ccc(I)cc2)(C(=O)NC2CCCCC2)CC1` [Compound 74] to `N[C@@H](Cc1cccs1)C(=O)N1CCC(Cc2ccc(NS(=O)(=O)c3ccccn3)cc2)(C(=O)NC2CCCCC2)CC1` [Compound 87, (S)-1-(2-amino-3-(thiophen-2-yl)propanoyl)-N-cyclohexyl-4-(4-(pyridine-2-sulfonamido)benzyl)piperidine-4-carboxamide hydrochloride], the IC50 falls from > 20000 nM to 20 nM.

Compared with `N[C@@H](Cc1cccs1)C(=O)N1CCC(Cc2ccccc2C(=O)O)(C(=O)NC2CCCCC2)CC1` [Compound 80, 2-[1-(2-(S)-Amino-3-thiophen-2-yl-propionyl)-4-cyclohexylcarbamoyl-piperidin-4-ylmethyl]-benzoic acid hydrochloride], `NC(=O)c1ccc(CC2(C(=O)NC3CCC(O)CC3)CCN(C(=O)C(N)Cc3cccs3)CC2)cc1` (stereo not shown) [Compound 117] is 1.5-fold higher in IC50: 220 nM for the first, 330 nM for the second.

Compared with `COC(=O)C1CCC(NC(=O)C2(c3ccccc3)CCN(C(=O)C(N)Cc3cccs3)CC2)CC1` (stereo not shown) [Compound 109], `N[C@@H](Cc1cccs1)C(=O)N1CCC(C(=O)N[C@H]2CC[C@H](C(=O)O)CC2)(c2ccccc2)CC1` [Compound 111, 4-{[1-(2-(S)-Amino-3-thiophen-2-yl-propionyl)-4-phenyl-piperidine-4-carbonyl]-amino}-trans-cyclohexanecarboxylic acid] is 3.6-fold higher in IC50: 25 nM for the first, 89 nM for the second. The first is the more potent here.

Going from `COC(=O)C1CCC(NC(=O)C2(c3ccccc3)CCN(C(=O)C(N)Cc3cccs3)CC2)CC1` (stereo not shown) [Compound 113] to `Cc1ccc(C2(C(=O)NC3CCC(O)CC3)CCN(C(=O)C(N)Cc3cccs3)CC2)cc1` (stereo not shown) [Compound 131], the IC50 rises from 70 nM to 140 nM (2-fold).

Compared with `N#Cc1ccc(CC2(C(=O)NC3CCC(O)CC3)CCN(C(=O)C(N)Cc3cccs3)CC2)cc1` (stereo not shown) [Compound 125], `NC(Cc1cccs1)C(=O)N1CCC(Cc2ccc(-c3nnn[nH]3)cc2)(C(=O)NC2CCC(O)CC2)CC1` (stereo not shown) [Compound 128] is 4.3-fold higher in IC50: 160 nM for the first, 690 nM for the second. The first is the more potent here.

Going from `N[C@@H](Cc1cccs1)C(=O)N1CCC(C(=O)NCC2CCCCC2)(c2cc(C(F)(F)F)cc(C(F)(F)F)c2)CC1` [Compound 133, 1-(2-(S)-Amino-3-thiophen-2-yl-propionyl)-4-(3,5-bis-trifluoromethyl-phenyl)-piperidine-4-carboxylic acid cyclohexylmethylamide hydrochloride] to `CN1CCC(CNC(=O)C2(c3ccccc3)CCN(C(=O)C(N)Cc3cccs3)CC2)CC1` (stereo not shown) [Compound 152], the IC50 rises from 67 nM to 820 nM (12-fold). The first is the more potent here.
